One data set addresses T1, mGluR 1 (Rattus norvegicus, UniProt P23385).
T1 construct: Each rat (Wistar, male, 9 to 12 weeks of age) was decapitated to excise the cerebellum; from tissue; host or cells: rat (Wistar) cerebellum, P2 membrane fraction
The data set is described as follows: mGluR 1 binding test with tritium-labeled ligand on rat cerebellum P2 membrane fraction. The settings on record: about 20 nM [3H]-6-amino-N-cyclohexyl-N,3-dimethylthiazolo[3,2-a]benzimidazole-2-carboxamide. As to the method: (Test Methods) 1. The mGluR 1 Binding Activity
Effect of the compounds of the invention upon mGluR 1 was verified in accordance with the method described in the Patent Reference 3.
(Preparation of Rat Cerebellum P2 Membrane Fraction)
Each rat (Wistar, male, 9 to 12 weeks of age) was decapitated to excise the cerebellum. After weight measurement, this was homogenized in 7 to 10 volumes of 0.32 M sucrose solution. After 15 minutes of centrifugation at 900×g, the supernatant was preserved in a container (in ice). The precipitate was again homogenized in 0.32 M sucrose solution of the same volume of the first time and centrifuged at 900×g for 15 minutes. The supernatant obtained this time was combined with the previously obtained supernatant and centrifuged at 15,000×g for 20 minutes. The precipitate was homogenized in 5 mM Tris-HCl, pH 7.4, and centrifuged at 15,000×g for 15 minutes. This step was repeated again. The precipitate was homogenized in 50 mM Tris-HCl, pH 7.4, and centrifuged at 15,000×g for 15 minutes. The precipitate was homogenized in an appropriate amount of 50 mM Tris-HCl, pH 7.4, subdivided into small portions and then preserved at −80° C.
As the assay buffer, 50 mM Tris-HCl, 2.5 mM CaCl2, pH 7.4, was used. [^3H]-(6-Amino-N-cyclohexyl-N,3-dimethylthiazolo[3,2-a]benzimidazole-2-carboxamide) (specific activity; 81 Ci/mmol; Amersham), a test compound and about 0.1 mg of the rat cerebellum P2 membrane fraction were suspended to a total volume of 100 μl in a 96 well microplate and then incubated at room temperature (about 25° C.) for 45 minutes. Completion of the incubation was carried out by a filtration method using Whatman GF/B filter. Quantity of the radioactivity was measured using a liquid scintillation counter. About 20 nM of [^3H]-6-amino-N-cyclohexyl-N,3-dimethylthiazolo[3,2-a]benzimidazole-2-carboxamide was used in the competitive test, and the specific binding was defined as a portion of the total binding, which was replaced by 10 μM of 6-{[(2-methoxyethyl)amino]methyl}-N-neopentylthiazolo[3,2-a]benzimidazole-2-carboxamide (Patent Reference 3, the compound described in Example 75). Evaluation of the test compound was carried out by calculating the ratio of binding inhibition upon the specific binding.
Determination of protein was carried out using BIO-RAD DC protein assay (BIO-RAD). Bovine serum albumin was used as the standard substance.

The test system of another data set is STZ-loaded mice. Description: Streptozotocin (STZ)-induced diabetes model, tail pinch test. In kind it is in vivo, ICR mice. The settings on record: at 10 mg/kg. As for the experimental part:
• Thomsen C., Mulvihill E. R., Haldeman B., Pickering D. S., Hampson D. R. and Suzdak P. D., A pharmacological characterization of the mGluR 1 alpha subtype of the metabotropic glutamate receptor expressed in a cloned baby hamster kidney cell line., Brain Res., Aug. 13, 1993, 619(1-2), 22-8 2. Inhibitory Effect Upon Neuropathic Pain 1) Streptozotocin (to be Referred to as STZ Hereinafter)—Induced Diabetes Model
The test was carried out by modifying a part of a report (Pharmacol. Biochem. Behav., 39, 541-544, 1991). At a dose of 200 mg/kg, STZ was intraperitoneally administered to each of ICR mice of 4 weeks of age. A preliminary test of a tail pinch test was carried out in the afternoon of the day 2 weeks after the administration, and only animals showing a reaction latency of 3 seconds or less were submitted to the next day's test. Each compound was loaded by 10 mg/kg of oral administration, and the tail pinch test was carried out after 30 minutes of the administration to calculate a difference from the value of latency measured in the preliminary test.
In this connection, normal mice unloaded with STZ show a reaction latency of 6 to 7 seconds in average by this test. STZ-loaded mice having a reaction latency of 3 seconds or less in which distinct reduction in the pain threshold was observed were used in the test of this time. […]

In data set [1] the test system is Salmonella typhimurium TA 98 and TA 100. The data set is described as follows: Reverse mutation test using a bacterium (genetic toxicity). In kind it is cell-based. The settings on record: pre-incubation method, presence and absence of metabolic activation system (S9Mix). As to the method: Gene mutation inducing ability of the compounds of the invention was verified by a reverse mutation test which uses a bacterium.
The test was carried out in accordance with the genetic toxicity test guideline of drugs (Iyakushin No. 1604, Nov. 1, 1999) by a pre-incubation method in the presence and absence of a metabolic activation system. However, Salmonella typhimurium TA 98 and TA 100 alone were used as the test strains.
(Reverse Mutation Test Using a Bacterium)
A 0.5 ml portion of 0.1 M sodium phosphate buffer (pH 7.4), 0.1 ml of an overnight-cultured test strain suspension and 0.1 ml of a solution of a substance to be tested were put into a test tube and shaken (60 reciprocation/min) at 37° C. for 20 minutes, and then 2 ml of soft agar kept at about 45° C. was added thereto and the mixture was spread on a minimal glucose agar plate medium (plate) and cultured at 37° C. for about 48 hours. In the case of the metabolic activation test, the same procedure was carried out by adding the same volume of S9Mix instead of the 0.1 M sodium phosphate buffer. […]
The number of colonies formed on the plate after 48 hours of culturing was counted. […]

In data set [2] the test system is L5/L6 spinal nerves-ligated rat. Description: L5/L6 spinal nerves-ligated rat, von Frey hair (VFH) test. The settings on record: 30 mg/kg oral administration; VFH test 30 minutes after administration. Format: in vivo, SD rats. As for the experimental part:
2) L5/L6 Spinal Nerves-Ligated Rat
The test was carried out by modifying a part of a report (PAIN, 50, 355-363, 1992). Using SD rats, left side hip nerves (L5 and L6) were ligated with a silk thread under pentobarbital anesthesia. The following test was carried out during a period of from on the 7th day to the 14th day after the operation.
Each compound was orally administered, and the von Frey hair (VFH) test was carried out 30 minutes thereafter to calculate the pain threshold value against mechanical nocuous stimulus. The measurement was carried out on the left and right hind legs.
The significant difference test was carried out using the Dunnett method on respective left and right legs between the control group and compound-administered group.

Structures are written as SMILES. Where a name gives a salt, the structure may show the parent alone.

T1 sequence (P23385 19-1199): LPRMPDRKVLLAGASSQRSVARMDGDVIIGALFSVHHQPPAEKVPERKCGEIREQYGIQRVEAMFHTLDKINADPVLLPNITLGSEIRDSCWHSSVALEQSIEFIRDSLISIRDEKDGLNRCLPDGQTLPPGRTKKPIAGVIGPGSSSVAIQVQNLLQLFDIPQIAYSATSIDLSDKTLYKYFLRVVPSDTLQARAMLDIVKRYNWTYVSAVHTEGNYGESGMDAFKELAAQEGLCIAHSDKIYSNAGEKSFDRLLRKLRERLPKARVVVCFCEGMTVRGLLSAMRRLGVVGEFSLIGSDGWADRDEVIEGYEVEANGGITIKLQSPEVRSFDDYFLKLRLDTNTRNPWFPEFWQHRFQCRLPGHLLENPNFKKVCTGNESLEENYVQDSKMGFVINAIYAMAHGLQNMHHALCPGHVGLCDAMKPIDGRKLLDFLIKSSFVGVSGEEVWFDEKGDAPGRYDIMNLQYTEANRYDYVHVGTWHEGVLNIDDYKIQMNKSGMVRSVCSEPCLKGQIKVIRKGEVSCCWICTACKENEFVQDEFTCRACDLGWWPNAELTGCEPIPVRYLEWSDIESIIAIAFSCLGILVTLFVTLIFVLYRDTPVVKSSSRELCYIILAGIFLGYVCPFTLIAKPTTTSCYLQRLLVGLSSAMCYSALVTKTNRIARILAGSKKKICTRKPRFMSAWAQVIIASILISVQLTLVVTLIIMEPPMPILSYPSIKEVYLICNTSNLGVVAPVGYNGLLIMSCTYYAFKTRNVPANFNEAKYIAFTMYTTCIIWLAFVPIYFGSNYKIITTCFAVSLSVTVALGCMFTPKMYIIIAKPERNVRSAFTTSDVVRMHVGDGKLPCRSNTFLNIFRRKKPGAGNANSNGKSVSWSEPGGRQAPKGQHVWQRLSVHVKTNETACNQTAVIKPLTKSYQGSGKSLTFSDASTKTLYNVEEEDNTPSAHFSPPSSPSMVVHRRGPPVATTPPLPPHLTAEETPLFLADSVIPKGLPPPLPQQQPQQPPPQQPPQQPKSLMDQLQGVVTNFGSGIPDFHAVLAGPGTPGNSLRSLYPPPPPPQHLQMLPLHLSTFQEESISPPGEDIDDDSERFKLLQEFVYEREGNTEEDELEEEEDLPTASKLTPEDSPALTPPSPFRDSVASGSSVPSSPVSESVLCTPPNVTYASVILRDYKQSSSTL

Usually IC50 stands for the concentration needed to halve the response being measured. A low value points to greater potency. As to `CN(CC1OCCO1)C(=O)c1cn2c(nc3ccc(CNC[C@H]4CCCO4)cc32)s1` [Example 35, N-(1,3-Dioxolan-2-ylmethyl)-N-methyl-6-({[((R)-tetrahydro-2-furyl)methyl]amino}methyl)thiazolo[3,2-a]benzimidazole-2-carboxamide dihydrochloride], the IC50 at mGluR 1 turned out to be 12 nM. Take `CN(CC(C)(C)C)C(=O)c1cn2c(nc3ccc(CNC4COC4)cc32)s1` [Example 6, N-Methyl-N-neopentyl-6-[(oxetan-3-ylamino)methyl]thiazolo[3,2-a]benzimidazole-2-carboxamide 1.5 Fumarate]: the IC50 at mGluR 1 worked out at 2 nM. Turning to `CN(CC(C)(C)C)C(=O)c1cn2c(nc3ccc(CNCC4OCCO4)cc32)s1` [Example 12, 6-{[(1,3-Dioxolan-2-ylmethyl)amino]methyl}-N-methyl-N-neopentylthiazolo[3,2-a]benzimidazole-2-carboxamide dihydrochloride], the oral activity result with STZ-loaded mice was “effective”. For the same molecule, the “gene mutation inducing ability” value in data set [1] is listed as “negative”.

At mGluR 1, `CN(CC1OCCO1)C(=O)c1cn2c(nc3ccc(CNCC4CCOCC4)cc32)s1` [Example 39, N-(1,3-Dioxolan-2-ylmethyl)-N-methyl-6-({[(tetrahydro-2H-pyran-4-yl)methyl]amino}methyl)thiazolo[3,2-a]benzimidazole-2-carboxamide dihydrochloride] had an IC50 of 26 nM. `CN(CC(C)(C)C)C(=O)c1cn2c(nc3ccc(CNC4CCOCC4)cc32)s1` [Example 15, N-Methyl-N-neopentyl-6-{[(tetrahydro-2H-pyran-4-yl)amino]methyl}thiazolo[3,2-a]benzimidazole-2-carboxamide dihydrochloride] had an IC50 at mGluR 1 of 26 nM. Also, the “efficacy upon the threshold value reduction in the operated side” value in data set [2] is “showed their efficacy”. `CN(CC1OCCO1)C(=O)c1cn2c(nc3ccc(CNC4COC4)cc32)s1` [Example 31, N-(1,3-Dioxolan-2-ylmethyl)-N-methyl-6-[(oxetan-3-ylamino)methyl]thiazolo[3,2-a]benzimidazole-2-carboxamide] showed an IC50 at mGluR 1 of 43 nM. In the case of `CN(CC(C)(C)C)C(=O)c1cn2c(nc3ccc(CNC[C@@H]4CCCO4)cc32)s1` [Example 11, N-Methyl-N-neopentyl-6-({[((S)-tetrahydro-2-furfuryl)methyl]amino}methyl)thiazolo[3,2-a]benzimidazole-2-carboxamide Dihydrochloride], the IC50 at mGluR 1 came to 3 nM. Molecule `CC(C)(C)CNC(=O)c1cn2c(nc3ccc(CNCC4CCOCC4)cc32)s1` [Example 28, N-Neopentyl-6-({[(tetrahydro-2H-pyran-4-yl)methyl]amino}methyl)thiazolo[3,2-a]benzimidazole-2-carboxamide dihydrochloride] displayed an IC50 on mGluR 1 of 48 nM. In addition, the “efficacy upon the threshold value reduction in the operated side” value in data set [2] is “showed their efficacy”.

Molecule `CC(C)(C)CNC(=O)c1cn2c(nc3ccc(CNC[C@H]4CCCO4)cc32)s1` [Example 24, (R)-N-Neopentyl-6-({[(tetrahydro-2-furyl)methyl]amino}methyl)thiazolo[3,2-a]benzimidazole-2-carboxamide dihydrochloride] registered an IC50 on mGluR 1 of 11 nM. Still for that read-out and setting: to `CN(CC(C)(C)C)C(=O)c1cn2c(nc3ccc(CNCC4(C)COC4)cc32)s1` [Example 7, N-Methyl-6-({[(3-methyloxetan-3-yl)methyl]amino}methyl)-N-neopentylthiazolo[3,2-a]benzimidazole-2-carboxamide] belongs 9 nM. `CN(CC(C)(C)C)C(=O)c1cn2c(nc3ccc(CNCC4CCOCC4)cc32)s1` [Example 17, N-Methyl-N-neopentyl-6-({[(tetrahydro-2H-pyran-4-yl)methyl]amino}methyl)thiazolo[3,2-a]benzimidazole-2-carboxamide dihydrochloride]: on mGluR 1, the IC50 stood at 6 nM. For the same molecule, in data set [2], the “efficacy upon the threshold value reduction in the operated side” value is “showed their efficacy”. Take `CC(C)(C)CNC(=O)c1cn2c(nc3ccc(CN[C@@H]4CCOC4)cc32)s1` [Example 23, (R)-N-Neopentyl-6-{[(tetrahydro-3-furyl)amino]methyl}thiazolo[3,2-a]benzimidazole-2-carboxamide dihydrochloride]: at mGluR 1, the IC50 turned out to be 30 nM. Same read-out and setting: the figure for `CN(CC1OCCO1)C(=O)c1cn2c(nc3ccc(CNCC4OCCO4)cc32)s1` [Example 37, N-(1,3-Dioxolan-2-ylmethyl)-6-{[(1,3-dioxolan-2-ylmethyl)amino]methyl}-N-methylthiazolo[3,2-a]benzimidazole-2-carboxamide dihydrochloride] is 8 nM.

For the molecule `CN(CC1OCCO1)C(=O)c1cn2c(nc3ccc(CN[C@@H]4CCOC4)cc32)s1` [Example 34, N-(1,3-Dioxolan-2-ylmethyl)-N-methyl-6-{[(R)-(tetrahydro-3-furyl)amino]methyl}thiazolo[3,2-a]benzimidazole-2-carboxamide dihydrochloride], the IC50 on mGluR 1 was 37 nM.

With `CC(C)(C)CNC(=O)c1cn2c(nc3ccc(CNCC4OCCO4)cc32)s1` [Example 26, 6-{[(1,3-Dioxolan-2-ylmethyl)amino]methyl}-N-neopentylthiazolo[3,2-a]benzimidazole-2-carboxamide dihydrochloride], at mGluR 1, the IC50 is 8 nM.

(Values after US7250429B2, “Aminomethyl-substituted thiazolobenzimidazole compounds” (Astellas Pharma Inc., priority 2002, dated 2007).)
